Data reported in US20040029100A1, “Rapid screen to identify p-glycoprotein substrates and high affinity modulators” (priority 2000, published 2004).
Read-outs that look alike come from different tables or passages of the source. Square brackets hold non-standard residues; d marks the D form. Peptide text beside a SMILES is read from it. * marks the point of attachment. Sta = CC(C)C[C@H](N)[C@@H](O)CC(=O)O; Isovaleryl = CC(C)CC(=O)*; Cbz = O=C(OCc1ccccc1)*; Boc = CC(C)(C)OC(=O)*; OBn = c1ccc(CO*)cc1; OtBu = CC(C)(C)O*

Key:
[1] = molecular target: T1, P-glycoprotein (Pgp) purified from MDR CH^RB30 Chinese hamster ovary cells (Cricetulus griseus, UniProt P21448); assay: Quenching of intrinsic Trp fluorescence of purified Pgp by nucleotides, drugs and peptides; details: for ΔFmax: maximal quenching reached at saturation
Method: (§1) Purification of Pgp. Pgp was purified from plasma membrane of MDR CH^RB30 cells by a modification of the method previously described for CH^RC5 (27). […] Contaminating glycoproteins were removed from the S2 fraction by passing through a concanavalinA-Sepharose 4B column (Pharmacia) equilibrated with 2 mM CHAPS buffer. […] The Pgp preparation was kept on ice and used within 24 h.
(§2) Steady-state Fluorescence Measurements. Steady-state fluorescence measurements were performed using a Spex Model DM3000 spectrofluorimeter (Spex Industries Inc., Edison, N.J.) at 22° C., with excitation and emission bandpass set to 4 nm. Most fluorescence studies were carried out on solutions of 100 μg/mL Pgp in 2 mM CHAPS buffer, in the presence of 0.5 mg/mL of the phospholipid PMPC (Avanti Polar Lipids, Alabaster, Ala.). PMPC was added as extruded 100 nm unilamellar vesicles (8). With some drugs, the use of a lipid was not required for the fluorescence measurements. The excitation and emission spectra were the average of three scans, and were corrected by subtracting control scans with the same phospholipid buffer in the absence of protein.
(§3) Quenching Studies using TNP-Nucleotide Derivatives and Drugs. […] Working solutions of TNP-derivatives, and non-peptide drugs and modulators were also prepared in 2 mM CHAPS with 0.5 mg/mL PMPC vesicles, whereas peptide-based drugs and modulators were dissolved in dimethylsulfoxide (DMSO). […] Quenching experiments were performed by successively adding 5 μL aliquots of TNP-derivatives or drug solution to 500 μL of Pgp solution in a 0.5 cm quartz cuvette. After each addition, the sample was excited at 290 nm and the steady-state fluorescence emission was measured at 330 nm. Fluorescence intensities were corrected for dilution, scattering, and the inner filter effect as described elsewhere (8). Control titrations were performed with 30 μM NATA to assess the non-specific quenching of Trp fluorescence by TNP-nucleotide derivatives and drugs.
(§4) The experimental quenching data were computer-fitted to the following equation as described previously (8)(9): [formula]
(§5) where (ΔF/F0 100) is the percent quenching (percent change in fluorescence relative to the initial value), following addition of substrate at a concentration [S], and Kd is the dissociation constant. Fitting was carried out using nonlinear regression with the Marquardt-Levenberg algorithm (SigmaPlot, SPSS Inc., Chicago, Ill.), and values of Kd and (ΔFmax/F0 100) were extracted. For biphasic titration curves, each section of the binding curve was fitted to the above equation separately, as described previously (32).

[2] = molecular target: T1, P-glycoprotein (Pgp) purified from MDR CH^RB30 Chinese hamster ovary cells; assay: Trp fluorescence lifetime of purified Pgp in presence of nucleotides and drugs; design: Pgp was purified from plasma membrane of MDR CH^RB30 cells; endogenous in cells; host or cells: MDR CH^RB30 Chinese hamster ovary cells (plasma membrane, CHAPS extraction, concanavalin A-Sepharose pass-through); details: Pgp Trp decay, concentration of substance
Method: as §1
Fluorescence Lifetime Measurements. Fluorescence decays were measured with a PTI Model C-720 fluorescence lifetime instrument ((28), Photon Technology International Inc., Lawrenceville, N.J.) utilizing a proprietary stroboscopic detection technique (29). […] Fluorescence decays were analyzed with a PTI TimeMaster Pro analysis package using a discrete 1- to 4- exponential fit, 1- to 4-exponential global analysis, or lifetime distribution analysis by the Exponential Series Method (ESM) (30). The quality of fits was judged by chi-square values and weighed residuals.

P-glycoprotein (Pgp) = P-glycoprotein (Pgp) (Cricetulus griseus, UniProt P21448); assay: in vitro; details: Chinese hamster, Kd2
Method: as §1, §2, §3, §4, §5

[3] = maximal Trp quenching, single or higher affinity component
[4] = read-out: Kd1, single binding site or high affinity site, 100 μg/mL Pgp, 2 mM CHAPS, 0.5 mg/mL PMPC, 22° C.
[5] = Kd1, single binding site or high affinity site, 100 μg/mL Pgp, 2 mM CHAPS, 0.5 mg/mL PMPC, 22° C.
[6] = maximal Trp quenching, lower affinity component
[7] = read-out: Kd2, lower affinity site of biphasic quench curve

T1 sequence (P21448 whole entry): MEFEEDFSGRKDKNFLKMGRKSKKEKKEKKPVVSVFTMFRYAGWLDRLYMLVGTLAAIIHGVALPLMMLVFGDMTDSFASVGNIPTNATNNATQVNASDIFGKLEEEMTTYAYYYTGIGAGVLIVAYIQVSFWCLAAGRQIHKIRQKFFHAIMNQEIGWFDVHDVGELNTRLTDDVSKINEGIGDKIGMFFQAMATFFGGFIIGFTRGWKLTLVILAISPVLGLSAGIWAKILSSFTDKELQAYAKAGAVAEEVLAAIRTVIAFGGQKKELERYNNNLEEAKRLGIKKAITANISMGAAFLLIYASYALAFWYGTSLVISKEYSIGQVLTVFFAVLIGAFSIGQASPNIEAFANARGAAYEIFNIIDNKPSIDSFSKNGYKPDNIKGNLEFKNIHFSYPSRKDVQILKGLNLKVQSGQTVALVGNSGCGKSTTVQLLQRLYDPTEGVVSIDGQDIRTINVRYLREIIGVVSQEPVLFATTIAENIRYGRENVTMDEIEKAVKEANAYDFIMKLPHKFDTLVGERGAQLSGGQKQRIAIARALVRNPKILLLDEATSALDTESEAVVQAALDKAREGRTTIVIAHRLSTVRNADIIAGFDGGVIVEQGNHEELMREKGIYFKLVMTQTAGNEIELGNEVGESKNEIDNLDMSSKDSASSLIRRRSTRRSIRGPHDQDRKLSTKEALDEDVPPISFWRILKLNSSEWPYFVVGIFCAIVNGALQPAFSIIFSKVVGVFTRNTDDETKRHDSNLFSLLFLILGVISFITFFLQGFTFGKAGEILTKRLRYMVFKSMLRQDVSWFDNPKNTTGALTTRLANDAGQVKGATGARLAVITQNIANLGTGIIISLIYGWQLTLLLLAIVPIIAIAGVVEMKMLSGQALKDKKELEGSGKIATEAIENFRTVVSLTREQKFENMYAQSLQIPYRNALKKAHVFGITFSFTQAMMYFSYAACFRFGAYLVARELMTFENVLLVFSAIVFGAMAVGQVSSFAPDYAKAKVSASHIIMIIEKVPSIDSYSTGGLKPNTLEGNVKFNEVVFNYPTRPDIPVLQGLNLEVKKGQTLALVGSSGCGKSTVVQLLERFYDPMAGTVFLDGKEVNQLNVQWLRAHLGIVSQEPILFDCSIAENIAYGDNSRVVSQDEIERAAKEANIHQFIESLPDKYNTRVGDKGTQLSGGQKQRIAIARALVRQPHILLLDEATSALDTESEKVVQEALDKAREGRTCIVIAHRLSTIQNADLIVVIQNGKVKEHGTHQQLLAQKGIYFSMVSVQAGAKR
P-glycoprotein (Pgp), sequence (P21448 whole entry): as above

Nc1ncnc2c1ncn2[C@@H]1O[C@H](COP(=O)([O-])OP(=O)([O-])O)[C@@H](O)[C@H]1O.[Na+].[Na+] [ADP, disodium-ADP]
ΔFmax1 [1, 3]: 9.46% | ΔFmax [1]: ~10% | Kd [1, 4]: 330 µM | Kd ([1]; single type of binding site): ~300 µM

Nc1ncnc2c1ncn2C1OC(COP(=O)(O)OP(=O)(O)NP(=O)(O)O)C(O)C1O (stereo not shown) [AMP-PNP, 5′-adenylylimido-diphosphate]
ΔFmax1 [1, 3]: 10.6% | ΔFmax [1]: ~10% | Kd ([1]; single type of binding site): 210 µM

Nc1ncnc2c1ncn2[C@@H]1O[C@H](COP(=O)(O)OP(=O)([O-])OP(=O)([O-])O)[C@@H](O)[C@H]1O.[Na+].[Na+] [ATP, disodium-ATP]
ΔFmax1 [1, 3]: 10.4% | ΔFmax [1]: ~10% | Kd [1, 4]: 280 µM | Kd ([1]; single type of binding site): ~300 µM

CCCCCCCCCCCCCCCCCCOP(=O)([O-])OC1CC[N+](C)(C)CC1 [D21266]
ΔFmax1 [1, 3]: 13.0 ± 1.15% | Kd [1, 4]: 20.1 ± 3.4 µM

CCCCCCCCCCCCCCCCCCOP(=O)(O)OCC[N+]1(C)CCCCC1 [D-20133]
ΔFmax1 [1, 3]: 12.3 ± 0.89% | Kd [1, 4]: 12.8 ± 2.1 µM

CCOc1ccc(-c2nc3ccc(-c4nc5ccc(N6CCN(C)CC6)cc5[nH]4)cc3[nH]2)cc1 [Hoechst 33342]
ΔFmax1 [1, 3]: 57.2 ± 1.97% | Kd [1, 4]: 2.61 ± 0.182 µM

O=c1cc(N2CCOCC2)oc2c(-c3ccccc3)cccc12 [LY294002]
Kd [1, 5]: 6.29 ± 0.88 µM | Kd ([1]; Kd2, lower affinity site of biphasic quench curve): 11.5 ± 1.5 µM | ΔFmax2 [1, 6]: 36.2 ± 2.0% | ΔFmax1 [1, 3]: 29.7 ± 1.6%

C/C=C/C[C@@H](C)C(=O)[C@H]1C(=O)N[C@@H](C(C)C)C(=O)N(C)CC(=O)N(C)[C@@H](CC(C)C)C(=O)N[C@@H](C(C)C)C(=O)N(C)[C@@H](CC(C)C)C(=O)N[C@@H](C)C(=O)N[C@H](C)C(=O)N(C)[C@@H](CC(C)C)C(=O)N(C)[C@@H](CC(C)C)C(=O)N(C)[C@@H](C(C)C)C(=O)N1C [PSC833]
Kd [1]: 0.081 ± 0.0071 µM | ΔFmax1 [1, 3]: 4.02 ± 0.079%

COc1cc2c(c(OC)c1OC)-c1ccc(OC)c(=O)cc1[C@@H](NC(C)=O)CC2 [colchicine]
<tav> (amplitude average lifetime) [2]: 2.63 ns | a1 (pre-exponential value) [2]: 0.66 | a2 (pre-exponential value) [2]: 0.39 | t1 (fluorescence lifetime) [2]: 1.4 ns | t2 (fluorescence lifetime) [2]: 4.7 ns | ΔFmax1 [1, 3]: 102.2 ± 5.7%

COc1cccc2c1C(=O)c1c(O)c3c(c(O)c1C2=O)C[C@@](O)(C(C)=O)C[C@@H]3O[C@H]1C[C@H](N)[C@H](O)[C@H](C)O1 [daunorubicin]
<tav> (amplitude average lifetime) [2]: 2.61 ns | a1 (pre-exponential value) [2]: 0.71 | a2 (pre-exponential value) [2]: 0.52 | t1 (fluorescence lifetime) [2]: 1.3 ns | t2 (fluorescence lifetime) [2]: 4.4 ns | Kd (P-glycoprotein (Pgp)): 10.7 ± 1.7 µM | Kd [1]: 2.97 ± 0.38 µM | ΔFmax1 [1]: 22.7 ± 1.3% | ΔFmax2 [1]: 38.2 ± 2.4%

COc1cccc2c1C(=O)c1c(O)c3c(c(O)c1C2=O)C[C@@](O)(C(=O)CO)C[C@@H]3O[C@H]1C[C@H](N)[C@H](O)[C@H](C)O1 [doxorubicin]
Kd (P-glycoprotein (Pgp)): 21.6 ± 3.2 µM | Kd [1]: 5.44 ± 0.55 µM | ΔFmax2 [1, 6]: 38.7 ± 3.0% | ΔFmax1 [1, 3]: 19.5 ± 0.90%

CCCCCCCCCCCCCCCCOP(=O)([O-])OCC[N+](C)(C)C [mitelfosine]
ΔFmax1 [1]: 12.0 ± 1.0% | Kd [1, 4]: 20.6 ± 3.3 µM

CC(C)CC(=O)N[C@H](C(=O)N[C@H](C(=O)N[C@@H](CC(C)C)[C@@H](O)CC(=O)N[C@@H](C)C(=O)N[C@@H](CC(C)C)[C@@H](O)CC(=O)O)C(C)C)C(C)C [pepstatin A] (Isovaleryl-VV[Sta]A[Sta]-OH)
Kd [1, 5]: 9.53 ± 0.78 µM | ΔFmax1 [1, 3]: 4.46 ± 0.073%

C=C[C@H]1C[N@@]2CC[C@H]1C[C@H]2[C@H](O)c1ccnc2ccc(OC)cc12 [quinine]
ΔFmax1 [1]: 33.5 ± 2.2%

CC(C)(C)OC(=O)N[C@@H](CC(=O)OCc1ccccc1)C(=O)N[C@@H](CCCCNC(=O)OCc1ccccc1)C(=O)OC(C)(C)C [reversin 201] (Boc-Asp(OBn)-Lys(Cbz)-OtBu; N-terminus and C-terminus assumed)
Kd ([1]; Kd1): 0.23 ± 0.02 µM

COC(=O)[C@H](CCCCNC(=O)[C@H](CCC(=O)OCc1ccccc1)NC(=O)OC(C)(C)C)NC(=O)[C@H](CCC(=O)OCc1ccccc1)NC(=O)OC(C)(C)C [reversin 205]
Kd ([1]; Kd1): 0.37 ± 0.037 µM | ΔFmax1 [1, 3]: 5.41 ± 0.13%

CCN(CC)c1ccc2c(-c3ccccc3C(=O)O)c3ccc(=[N+](CC)CC)cc-3oc2c1 [rhodamine B]
Kd [1, 4]: 4 ± 0.45 µM | Kd [1, 7]: 33.2 ± 3.1 µM

CC(C)[C@@H]1NC(=O)[C@H](C)OC(=O)[C@@H](C(C)C)NC(=O)[C@@H](C(C)C)OC(=O)[C@H](C(C)C)NC(=O)[C@H](C)OC(=O)[C@@H](C(C)C)NC(=O)[C@@H](C(C)C)OC(=O)[C@H](C(C)C)NC(=O)[C@H](C)OC(=O)[C@@H](C(C)C)NC(=O)[C@@H](C(C)C)OC1=O [valinomycin]
Kd [1]: 0.72 ± 0.084 µM | ΔFmax1 [1, 3]: 4.14 ± 0.086%

CC[C@]1(O)C[C@@H]2CN(CCc3c([nH]c4ccccc34)[C@@](C(=O)OC)(c3cc4c(cc3OC)N(C)[C@H]3[C@@](O)(C(=O)OC)[C@H](OC(C)=O)[C@]5(CC)C=CCN6CC[C@]43[C@@H]65)C2)C1 [vinblastine]
<tav> (amplitude average lifetime) [2]: 2.17 ns | a1 (pre-exponential value) [2]: 1.07 | a2 (pre-exponential value) [2]: 0.51 | t1 (fluorescence lifetime) [2]: 1.1 ns | t2 (fluorescence lifetime) [2]: 4.4 ns | Kd [1]: 0.5 ± 0.08 µM | ΔFmax1 [1, 3]: 17.5 ± 0.82%

TNP-ATP
<tav> (amplitude average lifetime) [2]: 2.14 ns | a1 (pre-exponential value) [2]: 0.69 | a2 (pre-exponential value) [2]: 0.42 | t1 (fluorescence lifetime) [2]: 1.0 ns | t2 (fluorescence lifetime) [2]: 4.0 ns | ΔFmax1 [1, 3]: 79.6% | ΔFmax [1]: ~80% | Kd ([1]; nucleotide alone, absence of drug): 51 µM | Kd [1, 4]: 50.6 µM | Kd ([1]; titration following daunorubicin binding): 65 µM | Kd ([1]; titration following saturation with vinblastine): 64 µM

rhodamine 123
<tav> (amplitude average lifetime) [2]: 2.73 ns | a1 (pre-exponential value) [2]: 0.65 | a2 (pre-exponential value) [2]: 0.43 | t1 (fluorescence lifetime) [2]: 1.5 ns | t2 (fluorescence lifetime) [2]: 4.6 ns | Kd [1]: 6.81 ± 0.71 µM | ΔFmax2 [1, 6]: 107.2 ± 1.8% | ΔFmax1 [1, 3]: 47.5 ± 2.5% | ΔFmax [1]: ~100% | Kd [1, 7]: 29.8 ± 1 µM

tetramethylrosamine
<tav> (amplitude average lifetime) [2]: 3.9 ns | a1 (pre-exponential value) [2]: 2.43 | a2 (pre-exponential value) [2]: 1.1 | t1 (fluorescence lifetime) [2]: 0.55 ns | ΔFmax1 [1]: 21.0 ± 3.3% | ΔFmax2 [1]: 32.8 ± 0.88%
